Results taken from patent publication US6369246B2, “Synthesis and pharmaceuticals of novel 9-substituted-1, 5-dichloroanthracene analogs” (Dr. Keith Chan, GloboAsia, LLC, priority 1999, dated 2002).
pIC50: −log10 of the molar value. Like-named read-outs stand apart in the source and are kept apart here.

Columns and labels:
[1] = tested on: GBM cell line (human cervical carcinoma cells of ME 180 (GBM8401)); test: Growth inhibition assay, GBM cell line; format: cell-based; conditions: cell counting, read-out: IC50 GBM (concentration required to inhibit cell growth by 50% relative to controls)
Method: (§1) Growth inhibition was measured in three human carcinoma cell lines (GBK KB and CHO) using a previously described […] assay. Hwang, J.-M. et al., Chin. Med. J (Taipei), 51, 166-175 (1993). Human oral epidermoid carcinoma cells (KB cell line), human cervical carcinoma cells of ME 180 (GBM8401) and Chinese hamster ovary (CHO) cells grown in plateau phase were used in all experiments. Each cell line was further divided into control and experimental groups, respectively.
(§2) Stock solutions of the test compounds were prepared in DMSO and diluted with DMEM to give a final concentration of DMSO of 0.2%. Controls were performed with DMSO or with medium alone. The medium was removed and each well was rinsed with 100 μL PBS 48 hours after addition of the test compound to the culture. The cells were then incubated with sterile 0.5% trypsin, 0.2% EDTA in PBS for 20 minutes at 37° C. The detached cells from each well were suspended in DMEM and dispersed into single cells by gentle pipeting through an Eppendorf pipette and cell growth was determined directly by counting the cells in a Neubauer counting chamber using phase contrast microscopy. Inhibition was calculated by comparison of the mean values of the test compound (N=3) with the control (N=6−8) activity: (1-test compound/control) ×100. Inhibition was statistically significant compared to that of control (Student's t Test; P=0.05). IC50 values (concentration required to inhibit cell growth by 50%) were determined for each agent which was derived by interpolation of a log inhibitor concentration versus response plot using four or more different concentrations of the compound spanning the 50% inhibition point.

[2] = tested on: Human oral epidermoid carcinoma cells (KB cell line); test: Growth inhibition assay, KB cell line; format: cell-based; conditions: 48 hours, cell counting, read-out: IC50 KB (concentration required to inhibit cell growth by 50% relative to controls)
Method: as §1, §2

[3] = tested on: Chinese hamster ovary (CHO) cells; test: Growth inhibition assay, CHO cells; format: cell-based; conditions: 48 hours, cell counting, read-out: IC50 CHO (concentration required to inhibit cell growth by 50% relative to controls)
Method: as §1, §2

[4] = tested on: iron-induced lipid peroxidation in rat brain homogenates; test: Lipid peroxidation assay (TBA); format: biochemical, Wistar rats; conditions: ferrous ion 200 μM, 37° C. 30 min; for % Inhibition (1 μM), relative percentage of inhibition: 1 μM compound; for % Inhibition (10 μM), relative percentage of inhibition: 10 μM compound
Method: Rat brain homogenate was prepared from the brains of freshly killed Wistar rats and its peroxidation. In the presence of iron ions was measured by the thiobarbituric acid (TBA). Teng, C. M. et al., Eur. J. Pharmacol., 303, 129-139 (1996). Tetramethoxypropane was used as a standard, and the results were expressed as nanomoles of malondialdehyde equivalents per milligram of protein of rat brain homogenates. In brief, whole brain tissue, excluding the cerebellum, was washed and homogenized in 10 volumes of ice-cold Krebs buffer (10 mM N-2 hydroxyethyl-piperazine-N′-2-ethanesulfonic acid (Hepes), 10 mM glucose, 140 mM NaCl, 3.6 mM KCl, 1.5 mM CaCl2, 1.4 mM KH2PO4, 0.7 mM MgSO4, pH 7.4) using a glass Dounce homogenizer. […] The reaction mixture with test compounds or vehicle was incubated for 10 min, then stimulated by addition of ferrous ion (200 μM freshly prepared), and maintained at 37° C. for 30 min. The reactions were terminated by adding […] of ice-cold trichloroacetic acid solution (4% (w/v) in 0.3 N HCl) and […], of thiobarbituric acid-reactive substance reagent (0.5% (w/v) thiobarbituric acid in 50% (v/v) acetic acid). After boiling for 15 min, the samples were cooled and extracted with n-butanol. The extent of lipid peroxidation was estimated as thiobarbituric acid-reactive substances and was read at 532 nm in a spectrophotometer (Shimadzu UV-160).

`COc1cccc2c1C(=O)c1c(O)c3c(c(O)c1C2=O)C[C@@](O)(C(=O)CO)C[C@@H]3O[C@H]1C[C@H](N)[C@H](O)[C@H](C)O1` [Doxorubicin, reference compound] was tested, and the pIC50 ([1]; Homo sapiens, ME-180, 48 hours) was 3.22, the pIC50 ([2]; Homo sapiens) was 3.38 and the pIC50 ([3]; Cricetulus griseus) was 3.30.

Work on `O=C(Cc1ccccc1)Oc1c2cccc(Cl)c2cc2cccc(Cl)c12` [Compound 3v] yielded a pIC50 ([1]; 48 hours) of 3.96, a pIC50 [2] of 4.90 and a pIC50 [3] of 2.93. The “% Inhibition (1 μM), relative percentage of inhibition” value [4] was 13.7% and the “% Inhibition (10 μM), relative percentage of inhibition” value [4] was 32.8%.

`CN(Cc1cnc2nc(N)nc(N)c2n1)c1ccc(C(=O)N[C@@H](CCC(=O)O)C(=O)O)cc1` [Methotrexate, reference compound] showed a pIC50 ([1]; Homo sapiens, ME-180, 48 hours) of 2.03, a pIC50 ([2]; Homo sapiens) of 1.33 and a pIC50 ([3]; Cricetulus griseus) of 2.04.

Work on `O=C(CCl)Oc1c2cccc(Cl)c2cc2cccc(Cl)c12` [Compound 3c] yielded a pIC50 ([1]; 48 hours) of 3.98, a pIC50 [2] of 3.28 and a pIC50 [3] of 5.92. The “% Inhibition (1 μM), relative percentage of inhibition” value [4] was 100% and the “% Inhibition (10 μM), relative percentage of inhibition” value [4] was 100%.

`COc1cc(Cl)ccc1C(=O)Oc1c2cccc(Cl)c2cc2cccc(Cl)c12` [Compound 3t] gave a pIC50 ([1]; 48 hours) of 4.97, a pIC50 [2] of 3.09 and a pIC50 [3] of 3.94. The “% Inhibition (1 μM), relative percentage of inhibition” value [4] was 0% and the “% Inhibition (10 μM), relative percentage of inhibition” value [4] was 10.3%.

With `CO[C@@]12[C@H](COC(N)=O)C3=C(C(=O)C(C)=C(N)C3=O)N1C[C@@H]1N[C@@H]12` [Mitomycin-C, reference compound] the pIC50 ([1]; 48 hours) was 2.72 and the pIC50 [3] was 2.67.

In the case of `O=C(Oc1c2cccc(Cl)c2cc2cccc(Cl)c12)c1cccc(Cl)c1` [Compound 3p], the pIC50 ([1]; 48 hours) was 4.93, the pIC50 [2] was 2.98 and the “% Inhibition (1 μM), relative percentage of inhibition” value [4] was 8.6%. The “% Inhibition (10 μM), relative percentage of inhibition” value [4] was 30.6%.

With `CC(C)C(=O)Oc1c2cccc(Cl)c2cc2cccc(Cl)c12` [Compound 3e] the pIC50 ([1]; 48 hours) was 3.71, the pIC50 [2] was 3.37 and the pIC50 [3] was 2.88. The “% Inhibition (1 μM), relative percentage of inhibition” value [4] was 1.5% and the “% Inhibition (10 μM), relative percentage of inhibition” value [4] was 28.6%.

Work on `O=C(Oc1c2cccc(Cl)c2cc2cccc(Cl)c12)c1ccc(Cl)cc1Cl` [Compound 3u] yielded a pIC50 ([1]; 48 hours) of 4.06, a pIC50 [2] of 3.97 and a pIC50 [3] of 2.93. The “% Inhibition (1 μM), relative percentage of inhibition” value [4] was 1.7% and the “% Inhibition (10 μM), relative percentage of inhibition” value [4] was 16.0%.

With `O=C(Oc1c2cccc(Cl)c2cc2cccc(Cl)c12)C(Cl)Cl` [Compound 3g] the pIC50 ([1]; 48 hours) was 5.85, the pIC50 [2] was 3.28 and the pIC50 [3] was 2.89. For the same compound, the “% Inhibition (1 μM), relative percentage of inhibition” value [4] was 61.7% and the “% Inhibition (10 μM), relative percentage of inhibition” value [4] was 100%.

`CCC(=O)Oc1c2cccc(Cl)c2cc2cccc(Cl)c12` [Compound 3d] showed a pIC50 ([1]; 48 hours) of 4.76, a pIC50 [2] of 3.33 and a pIC50 [3] of 2.94. For the same compound, the “% Inhibition (1 μM), relative percentage of inhibition” value [4] was 100% and the “% Inhibition (10 μM), relative percentage of inhibition” value [4] was 100%.

`CC(Cl)C(=O)Oc1c2cccc(Cl)c2cc2cccc(Cl)c12` (stereo not drawn) [Compound 3f] showed a pIC50 ([1]; 48 hours) of 3.90, a pIC50 [2] of 3.43 and a pIC50 [3] of 3.02. The “% Inhibition (1 μM), relative percentage of inhibition” value [4] was 9.8% and the “% Inhibition (10 μM), relative percentage of inhibition” value [4] was 60.6%.

With `O=C(CCCCl)Oc1c2cccc(Cl)c2cc2cccc(Cl)c12` [Compound 3j] the pIC50 ([1]; 48 hours) was 5.96, the pIC50 [2] was 4.96 and the pIC50 [3] was 2.93. For the same compound, the “% Inhibition (1 μM), relative percentage of inhibition” value [4] was 10.0% and the “% Inhibition (10 μM), relative percentage of inhibition” value [4] was 29.0%.

For `Cc1ccccc1C(=O)Oc1c2cccc(Cl)c2cc2cccc(Cl)c12` [Compound 3m], the pIC50 ([1]; 48 hours) was 3.97, the pIC50 [2] was 2.94 and the pIC50 [3] was 2.82. For the same compound, the “% Inhibition (1 μM), relative percentage of inhibition” value [4] was 0% and the “% Inhibition (10 μM), relative percentage of inhibition” value [4] was 23.0%.

Compound `O=C(CCc1ccccc1)Oc1c2cccc(Cl)c2cc2cccc(Cl)c12` [Compound 3w] has a pIC50 ([1]; 48 hours) of 2.76, a pIC50 [2] of 3.03 and a pIC50 [3] of 2.93. The “% Inhibition (1 μM), relative percentage of inhibition” value [4] was 29.3% and the “% Inhibition (10 μM), relative percentage of inhibition” value [4] was 36.6%.

With `O=C(CCCBr)Oc1c2cccc(Cl)c2cc2cccc(Cl)c12` [Compound 3i] the pIC50 ([1]; 48 hours) was 3.69, the pIC50 [2] was 3.34 and the pIC50 [3] was 3.96. The “% Inhibition (1 μM), relative percentage of inhibition” value [4] was 38.1% and the “% Inhibition (10 μM), relative percentage of inhibition” value [4] was 100%.

In the case of “1,5-Dichloro-9-(p-toluoxy)-anthracene [Compound 3o]”, the pIC50 ([1]; 48 hours) was 4.95, the pIC50 [2] was 3.06 and the “% Inhibition (1 μM), relative percentage of inhibition” value [4] was 2.9%. The “% Inhibition (10 μM), relative percentage of inhibition” value [4] was 25.6%.

Compound `CC(=O)Oc1c2cccc(Cl)c2cc2cccc(Cl)c12` [Compound 3a, 1,5-Dichloro-9-acetyloxy-anthracene] has a pIC50 ([1]; Homo sapiens, ME-180, 48 hours) of 4.32, a pIC50 ([2]; Homo sapiens) of 3.33 and a pIC50 ([3]; Cricetulus griseus) of 3.94. The “% Inhibition (1 μM), relative percentage of inhibition” value [4] was 25.5% and the “% Inhibition (10 μM), relative percentage of inhibition” value [4] was 34.4%.

In the case of `CCCC(=O)Oc1c2cccc(Cl)c2cc2cccc(Cl)c12` [Compound 3h], the pIC50 ([1]; 48 hours) was 3.24, the pIC50 [2] was 3.26 and the pIC50 [3] was 7.00. The “% Inhibition (1 μM), relative percentage of inhibition” value [4] was 11.8% and the “% Inhibition (10 μM), relative percentage of inhibition” value [4] was 17.7%.

For `CCCCCC(=O)Oc1c2cccc(Cl)c2cc2cccc(Cl)c12` [Compound 3k], the pIC50 ([1]; 48 hours) was 5.92, the pIC50 [2] was 3.50 and the pIC50 [3] was 4.26. The “% Inhibition (1 μM), relative percentage of inhibition” value [4] was 12.2% and the “% Inhibition (10 μM), relative percentage of inhibition” value [4] was 17.2%.

`O=C(Oc1c2cccc(Cl)c2cc2cccc(Cl)c12)c1ccccc1` [Compound 3L, 1,5-Dichloro-9-benzoyloxy-anthracene] was tested, and the pIC50 ([1]; Homo sapiens, ME-180, 48 hours) was 3.65, the pIC50 ([2]; Homo sapiens) was 3.09 and the pIC50 ([3]; Cricetulus griseus) was 2.84. The “% Inhibition (1 μM), relative percentage of inhibition” value [4] was 4.6% and the “% Inhibition (10 μM), relative percentage of inhibition” value [4] was 14.0%.

In the case of `Cc1c(C)c2c(c(C)c1O)CC[C@@](C)(CCC[C@H](C)CCC[C@H](C)CCCC(C)C)O2` [(+)-a-Tocopherol, reference compound], the “% Inhibition (1 μM), relative percentage of inhibition” value [4] was 61.6% and the “% Inhibition (10 μM), relative percentage of inhibition” value [4] was 100%.

`Cc1cccc(C(=O)Oc2c3cccc(Cl)c3cc3cccc(Cl)c23)c1` [Compound 3n, 1,5-Dichloro-9-(m-toluyloxy)-anthracene] showed a pIC50 ([1]; 48 hours) of 3.40, a pIC50 [2] of 3.96 and a pIC50 [3] of 2.92. For the same compound, the “% Inhibition (1 μM), relative percentage of inhibition” value [4] was 10.9% and the “% Inhibition (10 μM), relative percentage of inhibition” value [4] was 22.4%.

Compound `O=C(CBr)Oc1c2cccc(Cl)c2cc2cccc(Cl)c12` [Compound 3b] has a pIC50 ([1]; 48 hours) of 4.72, a pIC50 [2] of 3.87 and a pIC50 [3] of 2.99. For the same compound, the “% Inhibition (1 μM), relative percentage of inhibition” value [4] was 100% and the “% Inhibition (10 μM), relative percentage of inhibition” value [4] was 100%.
